The values that follow come from patent US8470829B2 (priority 2004, dated 2013).

Each structure is given as a SMILES string. pIC50: −log10 of the molar value. Read-outs that look alike come from different tables or passages of the source.

The target in data set [1] is T1, human androgen receptor (Homo sapiens, UniProt P10275).
T1 construct: expressed in transfected cells
T1 sequence (P10275 1-920): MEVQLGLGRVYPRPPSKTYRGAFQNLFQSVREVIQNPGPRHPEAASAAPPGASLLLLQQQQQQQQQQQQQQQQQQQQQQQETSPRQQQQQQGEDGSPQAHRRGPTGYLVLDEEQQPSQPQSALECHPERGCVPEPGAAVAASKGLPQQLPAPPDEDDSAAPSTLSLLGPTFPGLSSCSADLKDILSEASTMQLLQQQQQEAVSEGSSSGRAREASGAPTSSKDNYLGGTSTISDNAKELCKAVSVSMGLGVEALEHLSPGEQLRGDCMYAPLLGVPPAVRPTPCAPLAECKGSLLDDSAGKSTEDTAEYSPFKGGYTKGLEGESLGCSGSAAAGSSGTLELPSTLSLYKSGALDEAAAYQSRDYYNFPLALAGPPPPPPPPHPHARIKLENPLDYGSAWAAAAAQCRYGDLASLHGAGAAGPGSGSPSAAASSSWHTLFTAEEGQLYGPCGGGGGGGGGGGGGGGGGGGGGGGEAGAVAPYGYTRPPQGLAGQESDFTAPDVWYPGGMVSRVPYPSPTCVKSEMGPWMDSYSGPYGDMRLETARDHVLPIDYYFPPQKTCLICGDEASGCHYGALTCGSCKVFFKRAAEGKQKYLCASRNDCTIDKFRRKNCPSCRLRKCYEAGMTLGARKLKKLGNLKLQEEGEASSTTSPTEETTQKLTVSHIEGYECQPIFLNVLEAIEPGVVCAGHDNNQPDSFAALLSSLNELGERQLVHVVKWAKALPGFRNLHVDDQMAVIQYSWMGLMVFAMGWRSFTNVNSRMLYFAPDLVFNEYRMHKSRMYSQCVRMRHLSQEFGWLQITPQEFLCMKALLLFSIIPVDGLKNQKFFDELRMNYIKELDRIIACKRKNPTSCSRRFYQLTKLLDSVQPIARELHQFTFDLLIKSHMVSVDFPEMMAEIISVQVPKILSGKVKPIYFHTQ
The experiment in a line: Measurement of agonist effect on androgen receptor (reporter gene assay, 11A11B2 cells). In kind it is cell-based. To be noted: compound concentration showing a transcription activity of 5% (0.1 nmol/L DHT = 100%, assay medium alone = 0%), 48 hours. (In a reporter assay the amount or activity of a reporter protein is the signal.)

The next data set has as its target androgen receptor (Homo sapiens, UniProt P10275). As to conditions: at a concentration of 10 μmol/L; cited from earlier work.
For data set [2] the following is noted: prostate cancer patients treated with flutamide; cited from earlier work.
Data set [3] deals with T1, human androgen receptor. Briefly: Investigation of antagonist effect on androgen receptor (reporter gene assay, 11A11B2 cells, with DHT). In kind it is cell-based.
For another data set, the system named is castrated rats. To be noted: continuously administered to castrated rats for two weeks; cited from earlier work.
Setting [4] is: with 0.1 nmol/L DHT, transcription activity rate of Test Example 1 subtracted, 11A11B2 cells, 48 hours, read-out: IC50.

At human androgen receptor [1], `CC(C)(O)C(=O)Nc1ccc([N+](=O)[O-])c(C(F)(F)F)c1` [Comparative Example 4, hydroxyflutamide] returned an EC5 of 0.01 µM. In addition, the “androgen receptor transcription activity” value on androgen receptor is recorded as “increase”. The “concentration in the blood” value in data set [2] was “several”.
The pIC50 is the negative decadic logarithm of the IC50, by convention in mol/L. What is called melting point is the temperature, or range, at which the solid turns liquid. The compound `CCOC(=O)Nc1cc(N2C(=O)N(c3ccc(C#N)c(C(F)(F)F)c3)C(=O)C2(C)C)ccc1Cl` [Example 13, {2-chloro-5-[3-(4-cyano-3-trifluoromethylphenyl)-5,5-dimethyl-2,4-dioxoimidazolidin-1-yl]phenyl}carbamic acid ethyl ester] showed a melting point of 155 to 157 °C. The compound also gave an EC5 at human androgen receptor [1] greater than 10 µM. The pIC50 on human androgen receptor [3] (setting [4]) is 6.70.
With `CC1(C)C(=O)N(c2ccc(C#N)c(C(F)(F)F)c2)C(=S)N1c1ccc(NC(=O)OCCO)nc1` [Example 60, {5-[3-(4-cyano-3-trifluoromethylphenyl)-5,5-dimethyl-4-oxo-2-thioxoimidazolidin-1-yl]pyridin-2-yl}carbamic acid 2-hydroxyethyl ester], at human androgen receptor [1], the EC5 is greater than 10 µM. Also, the pIC50 on human androgen receptor [3] (setting [4]) is 6.52.
With `CN(C)CCNC(=O)Nc1nc2cc(N3C(=S)N(c4ccc(C#N)c(Cl)c4)C(=O)C3(C)C)ccc2s1` [Example 61, 1-{5-[3-(3-chloro-4-cyanophenyl)-5,5-dimethyl-4-oxo-2-thioxoimidazolidin-1-yl]benzothiazol-2-yl}-3-(2-dimethylaminoethyl)urea], the EC5 at human androgen receptor [1] is greater than 10 µM. At human androgen receptor [3], the pIC50 was 6.52.
Consider `CC1(C)C(=O)N(c2ccc(C#N)c(Cl)c2)C(=S)N1c1ccc2sc(NC(=O)NCCO)nc2c1` [Example 63, 1-{5-[3-(3-chloro-4-cyanophenyl)-5,5-dimethyl-4-oxo-2-thioxoimidazolidin-1-yl]benzothiazol-2-yl}-3-(2-hydroxyethyl)urea], for which the EC5 at human androgen receptor [1] is greater than 10 µM. In addition, at human androgen receptor [3], the pIC50 was 6.52.
As for `CN(C)CCOC(=O)Nc1nc2cc(N3C(=S)N(c4ccc(C#N)c(Cl)c4)C(=O)C3(C)C)ccc2s1` [Example 64, {5-[3-(3-chloro-4-cyanophenyl)-5,5-dimethyl-4-oxo-2-thioxoimidazolidin-1-yl]benzothiazol-2-yl}carbamic acid 2-dimethylaminoethyl ester], the EC5 on human androgen receptor [1] is greater than 10 µM. Besides, the negative-log IC50 (pIC50) at human androgen receptor [3] (setting [4]) is 6.70.
Turning to `CC1(C)C(=O)N(c2ccc(C#N)c(Cl)c2)C(=S)N1c1ccc2sc(NC(=O)OCC(O)CO)nc2c1` (centres unmarked) [Example 65, {5-[3-(3-chloro-4-cyanophenyl)-5,5-dimethyl-4-oxo-2-thioxoimidazolidin-1-yl]benzothiazol-2-yl}carbamic acid 2,3-dihydroxypropyl ester], the EC5 on human androgen receptor [1] is greater than 10 µM. For the same compound, at human androgen receptor [3] (setting [4]), the pIC50 is 6.70.
Take `CC1(C)C(=O)N(c2ccc(C#N)c(Cl)c2)C(=S)N1c1ccc2sc(NC(=O)OCCO)nc2c1` [Example 66, {5-[3-(3-chloro-4-cyanophenyl)-5,5-dimethyl-4-oxo-2-thioxoimidazolidin-1-yl]benzothiazol-2-yl}carbamic acid 2-hydroxyethyl ester]: the EC5 on human androgen receptor [1] was found to be 6 µM. For the same compound, the pIC50 on human androgen receptor [3] was 7.00.
Regarding `CC1(C)C(=O)N(c2ccc(C#N)c(Cl)c2)C(=S)N1c1cccc(S(N)(=O)=O)c1` [Example 68, 3-[3-(3-chloro-4-cyanophenyl)-5,5-dimethyl-4-oxo-2-thioxoimidazolidin-1-yl]benzenesulfonamide], the EC5 at human androgen receptor [1] is greater than 10 µM. For the same compound, at human androgen receptor [3] (setting [4]), the negative-log IC50 (pIC50) is 6.40.
Regarding `CN(C)CCOC(=O)Nc1ccc(N2C(=S)N(c3ccc(C#N)c(Cl)c3)C(=O)C2(C)C)cn1` [Example 69, {5-[3-(3-chloro-4-cyanophenyl)-5,5-dimethyl-4-oxo-2-thioxoimidazolidin-1-yl]pyridin-2-yl}-carbamic acid 2-dimethylaminoethyl ester], at human androgen receptor [1], the EC5 is greater than 10 µM. The pIC50 at human androgen receptor [3] was 6.30.
`CC1(C)C(=O)N(c2ccc(C#N)c(C(F)(F)F)c2)C(=S)N1c1ccc(NC(=O)OCC(O)CO)nc1` (centres unmarked) [Example 70, {5-[3-(4-cyano-3-trifluoromethylphenyl)-5,5-dimethyl-4-oxo-2-thioxoimidazolidin-1-yl]pyridin-2-yl}-carbamic acid 2,3-dihydroxypropyl ester] gave an EC5 on human androgen receptor [1] greater than 10 µM. Moreover, the pIC50 against human androgen receptor [3] is 6.30.
As for `CC(=O)O[C@]1(C(C)=O)CC[C@H]2[C@@H]3C=C(Cl)C4=CC(=O)CC[C@]4(C)[C@H]3CC[C@@]21C` [chlormadinone acetate], the “weight of the prostate gland” value with castrated rats was “increase”.
As for `CC(=O)O[C@]1(C(C)=O)CC[C@H]2[C@@H]3C=C(Cl)C4=CC(=O)[C@@H]5C[C@@H]5[C@]4(C)[C@H]3CC[C@@]21C` [cyproterone acetate], the “weight of the prostate gland” value in the data set on castrated rats is recorded as “increase”.
